Numbered stars: 1 amine (or outer) side, 2 acyl side, 3 side chain; on linkers, the order of the positions; unused ones are H or OH. Square brackets hold non-standard residues; d marks the D form. Side chains are listed from the residue outwards. Peptide text beside a SMILES is read from it. * marks the point of attachment. γGlu = O=C(O)[C@H](CCC(=O)[*:2])N[*:1]; Palmitoyl = CCCCCCCCCCCCCCCC(=O)*
Tests used:
Test in all cases: cAMP induction, firefly luciferase reporter assay in HEK293 cells co-transfected with receptor
Assay type in all cases: cell-based
[1] = target: T1, GLP-1 receptor (Homo sapiens, UniProt P43220)
T1 construct: expressed in transfected cells; host or cells: HEK293
Description: (§1) The ability of glucagon analogs to induce cAMP was measured in a firefly luciferase-based reporter assay. […] At the end of the incubation 100 microliters of LucLite luminescence substrate reagent (Perkin-Elmer, Wellesley, Mass.) were added to each well. […] Effective 50% concentrations were calculated by using Origin software (OriginLab, Northampton, Mass.

[2] = target: T2, GIP receptor (Homo sapiens, UniProt P48546)
T2 construct: expressed in transfected cells; host or cells: HEK293
T2 sequence (P48546 22-466): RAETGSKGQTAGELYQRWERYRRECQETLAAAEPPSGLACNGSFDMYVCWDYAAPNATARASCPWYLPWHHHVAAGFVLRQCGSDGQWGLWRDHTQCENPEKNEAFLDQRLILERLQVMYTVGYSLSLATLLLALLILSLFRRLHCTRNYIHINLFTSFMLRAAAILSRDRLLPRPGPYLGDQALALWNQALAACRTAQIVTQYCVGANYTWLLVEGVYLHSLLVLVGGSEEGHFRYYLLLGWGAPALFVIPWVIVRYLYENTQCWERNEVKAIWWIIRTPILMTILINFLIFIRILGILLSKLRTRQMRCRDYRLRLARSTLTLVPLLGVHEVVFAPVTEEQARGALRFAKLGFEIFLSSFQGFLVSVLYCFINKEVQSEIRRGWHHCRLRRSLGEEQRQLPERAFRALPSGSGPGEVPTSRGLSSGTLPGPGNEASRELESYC
Description: as §1

[3] = target: T3, glucagon receptor (Homo sapiens, UniProt P47871)
T3 construct: expressed in transfected cells; host or cells: HEK293
Description: as §1

[4] = Table 2, analogs of SEQ ID NO: 10
[5] = Table 3, analogs of SEQ ID NO: 12

T1 sequence (P43220 24-463): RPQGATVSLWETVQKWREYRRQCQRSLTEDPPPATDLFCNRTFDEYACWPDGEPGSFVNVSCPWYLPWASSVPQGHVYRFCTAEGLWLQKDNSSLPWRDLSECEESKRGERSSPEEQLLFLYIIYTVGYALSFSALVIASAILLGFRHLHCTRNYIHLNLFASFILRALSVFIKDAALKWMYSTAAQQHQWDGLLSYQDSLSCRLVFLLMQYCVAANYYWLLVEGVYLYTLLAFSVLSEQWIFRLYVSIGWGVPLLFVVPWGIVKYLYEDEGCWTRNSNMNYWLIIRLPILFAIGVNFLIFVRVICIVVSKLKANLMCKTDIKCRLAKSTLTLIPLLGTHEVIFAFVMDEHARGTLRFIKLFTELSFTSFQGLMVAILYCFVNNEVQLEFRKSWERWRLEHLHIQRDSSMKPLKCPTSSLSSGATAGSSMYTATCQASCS
T3 sequence (P47871 26-477): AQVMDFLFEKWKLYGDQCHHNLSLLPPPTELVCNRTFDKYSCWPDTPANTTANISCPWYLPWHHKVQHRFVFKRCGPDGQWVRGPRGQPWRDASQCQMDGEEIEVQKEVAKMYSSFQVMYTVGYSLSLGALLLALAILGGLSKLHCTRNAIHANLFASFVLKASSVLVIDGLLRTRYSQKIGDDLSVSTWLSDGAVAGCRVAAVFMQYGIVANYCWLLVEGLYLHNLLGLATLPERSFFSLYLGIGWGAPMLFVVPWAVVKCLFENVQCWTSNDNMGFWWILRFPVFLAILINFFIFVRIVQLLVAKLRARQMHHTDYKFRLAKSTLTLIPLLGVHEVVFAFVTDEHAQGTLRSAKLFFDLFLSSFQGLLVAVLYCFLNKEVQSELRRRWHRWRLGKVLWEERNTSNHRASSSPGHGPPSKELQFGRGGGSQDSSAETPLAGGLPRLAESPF

Compound | EC50 [1, 4] [pM] | EC50 [2, 4] [pM] | EC50 [3, 4] [pM] | EC50 [1, 5] [pM] | EC50 [2, 5] [pM] | EC50 [3, 5] [pM]
CCCCCCCCCCCCCCCC(=O)N[C@@H](CCC(=O)NCCCC[C@H](NC(=O)[C@H](CC(=O)O)NC(=O)[C@H](CO)NC(=O)[C@@H](NC(=O)[C@H](Cc1ccccc1)NC(=O)[C@@H](NC(=O)CNC(=O)[C@H](CCC(=O)O)NC(=O)[C@H](C)NC(=O)[C@@H](Cc1ccc(O)cc1)NC(C)=O)[C@@H](C)O)[C@@H](C)O)C(=O)N[C@@H](CO)C(=O)N[C@@H](CCCCN)C(=O)N[C@@H](Cc1ccc(O)cc1)C(=O)N[C@@H](CC(C)C)C(=O)N[C@@H](CC(=O)O)C(=O)N[C@@H](CCC(=O)O)C(=O)N[C@@H](CCCNC(=N)N)C(=O)N[C@@H](C)C(=O)N[C@@H](C)C(=O)N[C@@H](CCC(N)=O)C(=O)N[C@@H](CC(=O)O)C(=O)N[C@@H](Cc1ccccc1)C(=O)N[C@H](C(=O)N[C@@H](CCC(N)=O)C(=O)N[C@@H](Cc1c[nH]c2ccccc12)C(=O)N[C@@H](CC(C)C)C(=O)N[C@@H](CC(C)C)C(=O)N[C@@H](CCC(=O)O)C(=O)NCC(=O)NCC(=O)N1CCC[C@H]1C(=O)N[C@@H](CO)C(=O)N[C@@H](CO)C(=O)NCC(=O)N[C@@H](C)C(=O)N1CCC[C@H]1C(=O)N1CCC[C@H]1C(=O)N1CCC[C@H]1C(=O)N[C@@H](CO)C(N)=O)C(C)C)C(=O)O [compound 141] | 6 | 2 | 419 | – | – | –
CCCCCCCCCCCCCCCC(=O)N[C@@H](CCC(=O)NCCCC[C@H](NC(=O)[C@H](CC(=O)O)NC(=O)[C@H](CO)NC(=O)[C@@H](NC(=O)[C@H](Cc1ccccc1)NC(=O)[C@@H](NC(=O)CNC(=O)[C@H](CC(C)C)NC(=O)[C@H](C)NC(=O)[C@@H](Cc1ccc(O)cc1)NC(C)=O)[C@@H](C)O)[C@@H](C)O)C(=O)N[C@@H](CO)C(=O)N[C@@H](CCCCN)C(=O)N[C@@H](Cc1ccc(O)cc1)C(=O)N[C@@H](CC(C)C)C(=O)N[C@@H](CC(=O)O)C(=O)N[C@@H](CCC(=O)O)C(=O)N[C@@H](CCCNC(=N)N)C(=O)N[C@@H](C)C(=O)N[C@@H](C)C(=O)N[C@@H](CCC(N)=O)C(=O)N[C@@H](CC(=O)O)C(=O)N[C@@H](Cc1ccccc1)C(=O)N[C@H](C(=O)N[C@@H](CCC(N)=O)C(=O)N[C@@H](Cc1c[nH]c2ccccc12)C(=O)N[C@@H](CC(C)C)C(=O)N[C@@H](CC(C)C)C(=O)N[C@@H](CCC(=O)O)C(=O)NCC(=O)NCC(=O)N1CCC[C@H]1C(=O)N[C@@H](CO)C(=O)N[C@@H](CO)C(=O)NCC(=O)N[C@@H](C)C(=O)N1CCC[C@H]1C(=O)N1CCC[C@H]1C(=O)N1CCC[C@H]1C(=O)N[C@@H](CO)C(N)=O)C(C)C)C(=O)O [compound 142] (Ac-[dY]ALGTFTSDK([γGlu-Palmitoyl])SKYLDERAAQDFVQWLLEGGPSSGAPPPS-NH2) | 5 | 2 | 103 | – | – | –
CCCCCCCCCCCCCCCC(=O)N[C@@H](CCC(=O)NCCCC[C@H](NC(=O)[C@H](CC(=O)O)NC(=O)[C@H](CO)NC(=O)[C@@H](NC(=O)[C@H](Cc1ccccc1)NC(=O)[C@@H](NC(=O)CNC(=O)[C@H](CCC(N)=O)NC(=O)[C@H](C)NC(=O)[C@@H](Cc1ccc(O)cc1)NC(C)=O)[C@@H](C)O)[C@@H](C)O)C(=O)N[C@@H](CO)C(=O)N[C@@H](CCCCN)C(=O)N[C@@H](Cc1ccc(O)cc1)C(=O)N[C@@H](CC(C)C)C(=O)N[C@@H](CC(=O)O)C(=O)N[C@@H](CCC(=O)O)C(=O)N[C@@H](CCCNC(=N)N)C(=O)N[C@@H](C)C(=O)N[C@@H](C)C(=O)N[C@@H](CCC(N)=O)C(=O)N[C@@H](CC(=O)O)C(=O)N[C@@H](Cc1ccccc1)C(=O)N[C@H](C(=O)N[C@@H](CCC(N)=O)C(=O)N[C@@H](Cc1c[nH]c2ccccc12)C(=O)N[C@@H](CC(C)C)C(=O)N[C@@H](CC(C)C)C(=O)N[C@@H](CC(=O)O)C(=O)N[C@@H](C)C(=O)NCC(=O)N1CCC[C@H]1C(=O)N[C@@H](CO)C(=O)N[C@@H](CO)C(=O)NCC(=O)N[C@@H](C)C(=O)N1CCC[C@H]1C(=O)N1CCC[C@H]1C(=O)N1CCC[C@H]1C(=O)N[C@@H](CO)C(N)=O)C(C)C)C(=O)O [compound 143] (Ac-[dY]AQGTFTSDK([γGlu-Palmitoyl])SKYLDERAAQDFVQWLLDAGPSSGAPPPS-NH2) | – | – | – | 3 | 3 | 4
CCCCCCCCCCCCCCCC(=O)N[C@@H](CCC(=O)NCCCC[C@H](NC(=O)[C@H](CC(=O)O)NC(=O)[C@H](CO)NC(=O)[C@@H](NC(=O)[C@H](Cc1ccccc1)NC(=O)[C@@H](NC(=O)CNC(=O)[C@H](CCC(=O)O)NC(=O)[C@H](C)NC(=O)[C@@H](Cc1ccc(O)cc1)NC(C)=O)[C@@H](C)O)[C@@H](C)O)C(=O)N[C@@H](CO)C(=O)N[C@@H](CCCCN)C(=O)N[C@@H](Cc1ccc(O)cc1)C(=O)N[C@@H](CC(C)C)C(=O)N[C@@H](CC(=O)O)C(=O)N[C@@H](CCC(=O)O)C(=O)N[C@@H](CCCNC(=N)N)C(=O)N[C@@H](C)C(=O)N[C@@H](C)C(=O)N[C@@H](CCC(N)=O)C(=O)N[C@@H](CC(=O)O)C(=O)N[C@@H](Cc1ccccc1)C(=O)N[C@H](C(=O)N[C@@H](CCC(N)=O)C(=O)N[C@@H](Cc1c[nH]c2ccccc12)C(=O)N[C@@H](CC(C)C)C(=O)N[C@@H](CC(C)C)C(=O)N[C@@H](CCC(=O)O)C(=O)N[C@@H](C)C(=O)NCC(=O)N1CCC[C@H]1C(=O)N[C@@H](CO)C(=O)N[C@@H](CO)C(=O)NCC(=O)N[C@@H](C)C(=O)N1CCC[C@H]1C(=O)N1CCC[C@H]1C(=O)N1CCC[C@H]1C(=O)N[C@@H](CO)C(N)=O)C(C)C)C(=O)O [compound 144] (Ac-[dY]AEGTFTSDK([γGlu-Palmitoyl])SKYLDERAAQDFVQWLLEAGPSSGAPPPS-NH2) | 17 | 3 | 1300 | – | – | –
CCCCCCCCCCCCCCCC(=O)N[C@@H](CCC(=O)NCCCC[C@H](NC(=O)[C@H](CC(=O)O)NC(=O)[C@H](CO)NC(=O)[C@@H](NC(=O)[C@H](Cc1ccccc1)NC(=O)[C@@H](NC(=O)CNC(=O)[C@H](CCC(=O)O)NC(=O)[C@H](C)NC(=O)CCc1ccc(O)cc1)[C@@H](C)O)[C@@H](C)O)C(=O)N[C@@H](CO)C(=O)N[C@@H](CCCCN)C(=O)N[C@@H](Cc1ccc(O)cc1)C(=O)N[C@@H](CC(C)C)C(=O)N[C@@H](CC(=O)O)C(=O)N[C@@H](CCC(=O)O)C(=O)N[C@@H](CCCNC(=N)N)C(=O)N[C@@H](C)C(=O)N[C@@H](C)C(=O)N[C@@H](CCC(N)=O)C(=O)N[C@@H](CC(=O)O)C(=O)N[C@@H](Cc1ccccc1)C(=O)N[C@H](C(=O)N[C@@H](CCC(N)=O)C(=O)N[C@@H](Cc1c[nH]c2ccccc12)C(=O)N[C@@H](CC(C)C)C(=O)N[C@@H](CC(C)C)C(=O)N[C@@H](CCC(=O)O)C(=O)NCC(=O)NCC(=O)N1CCC[C@H]1C(=O)N[C@@H](CO)C(=O)N[C@@H](CO)C(=O)NCC(=O)N[C@@H](C)C(=O)N1CCC[C@H]1C(=O)N1CCC[C@H]1C(=O)N1CCC[C@H]1C(=O)N[C@@H](CO)C(N)=O)C(C)C)C(=O)O [compound 145] | 3 | 3 | 3730 | – | – | –
